Legend:
[1] = test system: CEM-SS; test: Inhibitory activity against HIV-1 IIIB in CEM-SS infected cells; type: functional, cell-based; conditions: Homo sapiens
[2] = test system: CEM-SS; test: Inhibitory activity against HIV-1 IIIB in CEM-SS infected cells relative to AZT; type: functional, Homo sapiens
[3] = target: Human immunodeficiency virus type 1 protease (Human immunodeficiency virus 1) (UniProt Q72874); test: Inhibitory activity against HIV protease at a concentration of 5 uM
[4] = target: Human immunodeficiency virus type 1 protease (Human immunodeficiency virus 1) (UniProt Q72874); test: Inhibitory activity against HIV protease at a concentration of 50 uM
[5] = test system: MT4; test: Inhibitory activity against HIV-1 IIIB in MT-4 infected cells; type: functional, cell-based; conditions: Homo sapiens
[6] = test system: CEM-SS; test: Inhibitory activity against HIV-1 IIIB in CEM-SS infected cells (Experiment 2); type: functional, cell-based; conditions: Homo sapiens
[7] = test system: CEM-SS; test: Inhibitory activity against HIV-1 IIIB in CEM-SS infected cells; In active; type: functional, cell-based, Homo sapiens

| EC50 [1] [µM] | inhibition [3] [%] | inhibition [4] [%] | EC50 [6] [µM] | EC50 [7] | Compound | Relative Potency [2] | EC50 [5] [µM] |
| --- | --- | --- | --- | --- | --- | --- | --- |
| 0.027 | 9 |  |  |  | Cc1cn(C2CC(N=[N+]=[N-])C(COC(=O)C(C)(C)CC(=O)N[C@@H](Cc3ccccc3)[C@H](O)C(=O)N3CSC[C@H]3C(=O)NC(C)(C)C)O2)c(=O)[nH]c1=O (stereo partly drawn) | 4.7 |  |
|  | 97 | 32 |  |  | CC(C(=O)O)C(C)C(=O)N[C@@H](Cc1ccccc1)[C@H](O)C(=O)N1CSC[C@H]1C(=O)NC(C)(C)C (stereo partly drawn) |  | > 2000 |
|  | 93 | 20 |  |  | CC(C)(C)NC(=O)[C@@H]1CSCN1C(=O)[C@@H](O)[C@H](Cc1ccccc1)NC(=O)CC(C)(C)C(=O)O |  | > 2000 |
|  | 100 | 78 |  | Not Active | Cc1ccccc1CNC(=O)[C@H]1N(C(=O)[C@@H](O)[C@H](Cc2ccccc2)NC(=O)CC(C)(C)C(=O)O)CSC1(C)C |  |  |
| 0.019 | 41 |  |  |  | Cc1cn(C2CC(N=[N+]=[N-])C(COC(=O)C(C)(C)CC(=O)N[C@@H](Cc3ccccc3)[C@H](O)C(=O)N3CSC(C)(C)[C@H]3C(=O)NC(C)(C)C)O2)c(=O)[nH]c1=O (stereo partly drawn) | 6.6 |  |
|  | 99 | 76 |  |  | CC(C)(C)NC(=O)[C@H]1N(C(=O)[C@@H](O)[C@H](Cc2ccccc2)NC(=O)CC(C)(C)C(=O)O)CSC1(C)C |  | 52 |
|  | 87 |  |  |  | Cc1ccccc1CNC(=O)[C@@H]1CSCN1C(=O)[C@@H](O)[C@H](Cc1ccccc1)NC(=O)CC(C)(C)C(=O)O |  |  |
| 0.09 | 69 |  |  |  | Cc1cn(C2CC(N=[N+]=[N-])C(COC(=O)C(C)C(C)C(=O)N[C@@H](Cc3ccccc3)[C@H](O)C(=O)N3CSC(C)(C)[C@H]3C(=O)NC(C)(C)C)O2)c(=O)[nH]c1=O (stereo partly drawn) | 1.4 |  |
|  | 100 | 76 |  |  | Cc1ccccc1CNC(=O)[C@H]1N(C(=O)[C@@H](O)[C@H](Cc2ccccc2)NC(=O)C(C)C(C)C(=O)O)CSC1(C)C (stereo partly drawn) |  |  |
|  | 74 |  |  |  | CC(C)(C)NC(=O)[C@@H]1CSCN1C(=O)[C@@H](O)[C@H](Cc1ccccc1)NC(=O)CCC(=O)O |  |  |
|  | 99 | 78 |  |  | CC(C(=O)O)C(C)C(=O)N[C@@H](Cc1ccccc1)[C@H](O)C(=O)N1CSC(C)(C)[C@H]1C(=O)NC(C)(C)C (stereo partly drawn) |  | 225 |

Further lines, the molecule ahead of its results:

| Compound | EC50 [1] [µM] | inhibition [3] [%] | inhibition [4] [%] | EC50 [6] [µM] | EC50 [7] | Relative Potency [2] | EC50 [5] [µM] |
| --- | --- | --- | --- | --- | --- | --- | --- |
| Cc1ccccc1CNC(=O)[C@@H]1CSCN1C(=O)[C@@H](O)[C@H](Cc1ccccc1)NC(=O)C(C)C(C)C(=O)OCC1OC(n2cc(C)c(=O)[nH]c2=O)CC1N=[N+]=[N-] (stereo partly drawn) | 0.0089 | 57 |  |  |  | 1.2 |  |
| Cc1ccccc1CNC(=O)[C@@H]1CSCN1C(=O)[C@@H](O)[C@H](Cc1ccccc1)NC(=O)CC(C)(C)C(=O)OCC1OC(n2cc(C)c(=O)[nH]c2=O)CC1N=[N+]=[N-] (stereo partly drawn) | 0.0038 | 11 |  |  |  | 2.9 |  |
| Cc1cn([C@H]2C[C@H](N=[N+]=[N-])[C@@H](CO)O2)c(=O)[nH]c1=O [ZIDOVUDINE] |  |  |  | 0.011 |  | 1 |  |
| Cc1cn(C2CC(N=[N+]=[N-])C(COC(=O)C(C)C(C)C(=O)N[C@@H](Cc3ccccc3)[C@H](O)C(=O)N3CSC[C@H]3C(=O)NC(C)(C)C)O2)c(=O)[nH]c1=O (stereo partly drawn) | 0.027 | 29 |  |  |  | 4.7 |  |
| CSC[C@H](NC(=O)COc1cccc2cnccc12)C(=O)N[C@@H](Cc1ccccc1)[C@H](O)C(=O)N1CSC[C@H]1C(=O)NC(C)(C)C | 0.04 | 100 |  |  |  |  | 0.00057 |
| Cc1cn(C2CC(N=[N+]=[N-])C(COC(=O)CCC(=O)N[C@@H](Cc3ccccc3)[C@H](O)C(=O)N3CSC[C@H]3C(=O)NC(C)(C)C)O2)c(=O)[nH]c1=O (stereo partly drawn) | 0.042 | 14 |  |  |  | 3 |  |
| Cc1ccccc1CNC(=O)[C@@H]1CSCN1C(=O)[C@@H](O)[C@H](Cc1ccccc1)NC(=O)C(C)C(C)C(=O)O (stereo partly drawn) |  | 88 |  |  |  |  |  |
| Cc1ccccc1CNC(=O)[C@H]1N(C(=O)[C@@H](O)[C@H](Cc2ccccc2)NC(=O)C(C)C(C)C(=O)OCC2OC(n3cc(C)c(=O)[nH]c3=O)CC2N=[N+]=[N-])CSC1(C)C (stereo partly drawn) | 0.0073 | 96 | 39 |  |  | 1.5 |  |
| Cc1ccccc1CNC(=O)[C@H]1N(C(=O)[C@@H](O)[C@H](Cc2ccccc2)NC(=O)CC(C)(C)C(=O)OCC2OC(n3cc(C)c(=O)[nH]c3=O)CC2N=[N+]=[N-])CSC1(C)C (stereo partly drawn) | 0.00024 | 83 |  |  |  | 46 |  |
